Test: xn = mol fraction of the nth substance listed
Conditions: 100 kPa

O + CC(N)C(=O)[O-].CCCC[n+]1ccn(C)c1C
x2 = 0
Conditions	viscosity [mPa·s]
288.15 K	1.17
293.15 K	1.03
303.15 K	0.82
308.15 K	0.74

O + CCCC[n+]1ccn(C)c1C.NCC(=O)[O-]
x2 = 0
Conditions	viscosity [mPa·s]
288.15 K	1.17
293.15 K	1.03
298.15 K	0.91
303.15 K	0.82
318.15 K	0.61

O + N[C@@H]([C@H](O)C)C(=O)[O-].C(CCC)N1C(=[N+](C=C1)C)C
x2 = 0
Conditions	viscosity [mPa·s]
288.15 K	1.17
298.15 K	0.91
303.15 K	0.82
308.15 K	0.74
318.15 K	0.61

CC(N)C(=O)[O-].CCCC[n+]1ccn(C)c1C + O
viscosity [mPa·s]
Conditions	x1 = 0.1003	x1 = 0.2012	x1 = 0.3009	x1 = 0.4014	x1 = 0.4938	x1 = 0.5975	x1 = 0.6987	x1 = 0.7945	x1 = 0.8965	x1 = 1
288.15 K	28.4	52	86	127	168	215	270	336	429	520
293.15 K	–	40	64	95	126	161	–	244	307	–
298.15 K	17.1	30.5	48.9	72	96	123	151	183	226	268
303.15 K	12.8	23.3	36.8	54	72	92	113	136	165	192
308.15 K	10.6	19	30	44	58	75	92	110	131	150
313.15 K	8.1	14.7	23	33.5	44.2	57	–	82	97	110
318.15 K	6.7	12.1	–	27.5	36.3	46.7	57	67	77	–

CCCC[n+]1ccn(C)c1C.NCC(=O)[O-] + O
viscosity [mPa·s]
Conditions	x1 = 0.0999	x1 = 0.1982	x1 = 0.3003	x1 = 0.3904	x1 = 0.4786	x1 = 0.6	x1 = 0.6999	x1 = 0.798	x1 = 0.9001	x1 = 1
288.15 K	25.2	40.3	63	92	125	180	232	298	390	480
293.15 K	18.2	29.1	45.4	–	90	129	163	205	257	318
298.15 K	–	–	–	49.1	67	–	–	–	178	218
303.15 K	10.4	17.3	26.7	37.7	51	71	88	105	–	152
308.15 K	–	13.1	–	–	38.3	53	–	77	90	109
313.15 K	6.3	10.8	16.6	–	31.2	43.1	53	62	–	84
318.15 K	5.7	9.6	14.7	20.5	27.5	38.1	–	–	61	72

CCCCn1cc[n+](C)c1C.C[C@@H](O)[C@H](N)C(=O)[O-] + O
viscosity [mPa·s]
Conditions	x1 = 0.0998	x1 = 0.1919	x1 = 0.2985	x1 = 0.4004	x1 = 0.4927	x1 = 0.599	x1 = 0.7003	x1 = 0.8001	x1 = 0.9012	x1 = 1
288.15 K	57	84	141	228	–	470	650	880	1181	1472
293.15 K	40.4	61	–	164	236	331	–	600	780	960
298.15 K	28.7	44	73	115	164	231	–	–	510	610
303.15 K	18.1	28.7	47.4	74	105	145	191	245	310	363
308.15 K	15.6	–	40.6	–	89	–	159	–	245	285
313.15 K	9.8	15.8	–	40.6	57	–	100	122	145	167
318.15 K	8	13.1	–	–	–	62	–	–	107	125

Reference: a compilation of properties of binary mixtures (doi:10.1016/j.molliq.2022.119209)
